# Measurements from article PMC7614683, “A small molecule PI3Kα activator for cardioprotection and neuroregeneration” (Nature, 2023).
# Assays:
# PI3Kα N345K mutant = molecular target: T1, PI3Kα N345K mutant (Homo sapiens, UniProt P42336, N345K); test: ADP-Glo catalytic activity, oncogenic mutant N345K; type: biochemical
# T1 construct: Full-length human p110α was expressed either in a complex with full-length human p85α (for HTS, biochemistry and HDX-MS); 6xHis tag followed by TEV protease site (N); host or cells: Sf9, baculovirus
# Experimental: Expression and purification of wild-type p110α (Cambridge MRC Laboratory for Molecular Biology (LMB-MRC) plasmid number OP831) in a complex with full-length p85α (LMB-MRC plasmid OP809) was performed as described. The oncogenic mutants G106V (LMB-MRC plasmid JB35), N345K (LMB-MRC plasmid OP661) and E545K (LMB-MRC plasmid OP663) were also purified using this protocol. Briefly, 10 litres of Spodoptera frugiperda (Sf9) cell culture at a density of 1.0 x 10^6 cells/ml were co-infected with a p85α-encoding virus [LMB-MRC plasmid OP809]. and a virus encoding p110α with an N-terminal 6xHis tag followed by a tobacco etch virus (TEV) protease site [LMB-MRC plasmid OP831]. After a 48 h infection at 27°C, cells were harvested and washed with PBS. […]
# For characterisation of the effects of 1938 on in vitro PI3K enzymology, all reactions were performed at room temperature with 384 white-polystyrene plates (Corning #3574). […] Data was expressed as velocity (nmol of ADP generated/nmol of enzyme/sec). […] Luminescence was read using a PHERAstar® plate reader with software version 5.41, and analyses were performed using GraphPad Prism 8/9.
# A549 cells = test: pAKT S473 ELISA, A549; type: cell-based, human; details: 15 min; 5-10 μM 1938
# Experimental: A549 cells were seeded at 50,000 cells per well in 96-well plates in DMEM (10% FBS + 1% P/S). The next day cells were washed once with PBS before addition of serum-free DMEM for 24 h. On the day of treatment, cells were incubated in fresh serum-free DMEM prior to treatment. Compounds solubilised to 10 mM in DMSO were diluted 1:3 in an 8-point concentration response curve in DMSO. Concentration response curves were diluted in serum-free DMEM by transfer into intermediate plates using a BRAVO liquid handler (Agilent). Intermediate plates were then used to treat cell plates using the BRAVO liquid handler. […] Cell plates were treated for 15 min at 37°C, 5% CO2 before being washed with ice-cold PBS and lysed in lysis buffer […] Systems #895561) and freezing at -80°C. Levels of pAKT^S473 were determined using the phospho-AKT (S473) pan-specific Duoset IC ELISA (R&D Systems #DY[…]) in 96-well white high-binding plates (Corning #3922) according to manufacturer's instructions. Endpoint luminescence was measured using a Sense (Hidex) platereader. […] Data were transformed and EC50 data were determined by variable slope (4 parameters) non-linear regression using Prism 7 (Graphpad).
# T1 sequence (P42336 whole entry N345K): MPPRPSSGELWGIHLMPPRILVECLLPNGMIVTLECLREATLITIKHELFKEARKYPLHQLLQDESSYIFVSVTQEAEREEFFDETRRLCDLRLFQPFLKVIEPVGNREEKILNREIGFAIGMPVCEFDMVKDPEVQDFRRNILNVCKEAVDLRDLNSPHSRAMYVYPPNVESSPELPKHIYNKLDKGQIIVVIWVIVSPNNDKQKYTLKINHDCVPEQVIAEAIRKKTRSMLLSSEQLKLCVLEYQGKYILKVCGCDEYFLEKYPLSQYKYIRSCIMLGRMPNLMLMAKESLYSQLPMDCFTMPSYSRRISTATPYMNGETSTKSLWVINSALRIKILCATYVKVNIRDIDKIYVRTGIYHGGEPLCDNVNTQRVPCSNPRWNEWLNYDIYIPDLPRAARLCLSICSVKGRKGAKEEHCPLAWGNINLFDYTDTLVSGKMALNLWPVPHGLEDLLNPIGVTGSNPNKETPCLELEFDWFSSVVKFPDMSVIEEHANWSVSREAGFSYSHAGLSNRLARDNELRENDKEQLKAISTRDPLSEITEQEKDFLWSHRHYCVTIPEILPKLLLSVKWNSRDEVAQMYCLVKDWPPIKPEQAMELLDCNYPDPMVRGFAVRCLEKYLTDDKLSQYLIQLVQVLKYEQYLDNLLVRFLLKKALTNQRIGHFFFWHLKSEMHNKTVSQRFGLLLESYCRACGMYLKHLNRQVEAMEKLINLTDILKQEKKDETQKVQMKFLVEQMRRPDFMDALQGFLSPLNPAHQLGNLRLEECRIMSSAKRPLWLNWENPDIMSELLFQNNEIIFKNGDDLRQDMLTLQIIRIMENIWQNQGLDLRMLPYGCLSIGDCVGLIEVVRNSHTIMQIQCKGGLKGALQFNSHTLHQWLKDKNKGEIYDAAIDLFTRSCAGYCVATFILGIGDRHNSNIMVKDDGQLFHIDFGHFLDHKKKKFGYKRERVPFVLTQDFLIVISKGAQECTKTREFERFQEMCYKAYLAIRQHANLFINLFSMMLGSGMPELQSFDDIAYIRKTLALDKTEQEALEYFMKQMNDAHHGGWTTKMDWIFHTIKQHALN
# T1 sequence (P27986 whole entry partner): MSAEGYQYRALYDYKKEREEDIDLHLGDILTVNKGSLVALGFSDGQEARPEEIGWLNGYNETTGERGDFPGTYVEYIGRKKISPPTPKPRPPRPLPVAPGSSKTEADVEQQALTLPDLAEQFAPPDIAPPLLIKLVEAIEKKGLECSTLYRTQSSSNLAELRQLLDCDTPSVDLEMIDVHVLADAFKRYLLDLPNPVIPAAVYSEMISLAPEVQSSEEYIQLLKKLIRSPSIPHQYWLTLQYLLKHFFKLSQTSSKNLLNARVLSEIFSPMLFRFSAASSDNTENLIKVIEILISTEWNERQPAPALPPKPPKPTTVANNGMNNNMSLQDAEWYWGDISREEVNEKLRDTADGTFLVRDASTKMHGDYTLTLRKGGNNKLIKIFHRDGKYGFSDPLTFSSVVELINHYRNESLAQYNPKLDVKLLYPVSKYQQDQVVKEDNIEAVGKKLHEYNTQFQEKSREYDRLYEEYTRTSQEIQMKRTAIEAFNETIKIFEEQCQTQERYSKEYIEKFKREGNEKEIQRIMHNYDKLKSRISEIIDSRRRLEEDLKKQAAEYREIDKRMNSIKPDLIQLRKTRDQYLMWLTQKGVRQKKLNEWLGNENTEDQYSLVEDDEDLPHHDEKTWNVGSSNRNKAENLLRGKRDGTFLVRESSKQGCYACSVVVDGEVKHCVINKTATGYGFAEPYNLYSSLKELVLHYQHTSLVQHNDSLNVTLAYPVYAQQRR
smiles,measurement,setting,value
CCN1CCN(c2ccc(Nc3cc(Nc4cccc5c4N(C(C)=O)CC5)ccn3)cc2)CC1 [Compound 1938],activation of N345K mutant,PI3Kα N345K mutant,levels comparable with stimulation with pY
same,pAKT^S473 generation,A549 cells,~ 200 % of Emax of 1 μM insulin
